The values that follow come from patent publication US20120046246A1, “METHODS FOR TREATING OSTEOCLAST-RELATED DISEASE, COMPOUNDS AND COMPOSITIONS THEREOF” (University of Florida Research Foundation, priority 2008, published 2012).

Where two headings read alike, the source gives them in different places.

Test [1] addresses T1, interaction between recombinantly-expressed B2 subunit and pure rabbit muscle F-actin (Homo sapiens, UniProt P21281).
T1 construct: made in house
The test is described as follows: pelleting assay of B subunit binding to F-actin. Here is the method: Twenty-one small molecules are tested for their ability to block interaction between recombinantly-expressed B2 subunit and pure rabbit muscle F-actin.
Recombinant B subunit (1 μM) plus/minus F-actin (2 μM)) plus/minus 100 uM inhibitor compounds were incubated for 10 minutes in 20 mM Tris/HCl (pH 7.5), 100 mM NaCl, 1 mM MgCl2, 0.2 mM CaCl2, 0.5 mM ATP, 0.2 mM DTT, then subjected to ultracentrifugation at 180,000×g for 45 min. Supernatants and pellets were collected in SDS-PAGE sample buffer, separated by SDS-PAGE, stained with Coomassie Blue, and densitometry was performed using a Flurchem 8000 (Alpha Innotech, San Leandro Calif.).
The percent inhibition was determined by densitometry of SDS-PAGE gels. The raw densitometric number obtained of the recombinant B subunit band that was pelleted with F-actin, but with no compound present, represented 0% inhibition. The amount of the raw densitometric number of the amount of recombinant B subunit that pelleted with no actin present, but with compound, represented 100% inhibition. The amount of recombinant B subunit that pelleted with actin and the compound being tested was placed as a percentage assuming a linear response.

Test [2] concerns osteoclast formation in calcitriol-stimulated mouse marrow cultures. The test is described as follows: osteoclastogenesis stimulated by calcitriol in mouse marrow cultures. In kind it is cell-based. The conditions noted are these: concentration not given. Here is the method: Enoxacin and Binhib 2 were then tested for their effects on osteoclastogenesis stimulated by calcitriol in mouse marrow cultures. The mixed cultures represent a model for the complex interactions that regulate bone resorption in vivo. […] Osteoclast and osteoblast-containing mouse bone marrow cultures are obtained as above described. 4-6-week-old Swiss-Webster mice (Harlan, Indianapolis, Ind.) are sacrificed by cervical dislocation. Femurs and tibias are dissected free of adherent tissue; the marrow is expelled by cutting both bone ends and flushing the marrow cavity with MEM D10 using a 25-gauge needle. The marrow cells are washed twice and plated in 6 well plates at a concentration of 1×10^6 nucleated cells/cm^2 in MEM D1 0 containing 10 nM calcitriol. Cultures are fed on the third and fifth day of culture by replacing half of the medium with fresh medium containing calcitriol. Cultures are treated with enoxacin at 10 μM or vehicle control on Day 1, and when the media is refreshed.

In test [3] the test system is mature osteoclasts on bone slices. The test is described as follows: ruffled membrane formation / V-ATPase trafficking in mature osteoclasts on bone slices (anti-E subunit antibody). The conditions noted are these: concentration not given. It counts as cell-based. Here is the method: FIG. 7 depicts that enoxacin (10 μM) blocks ruffled membrane formation. Mature osteoclasts on bone slices were treated with enoxacin or vehicle control for 3 days, then fixed and labeled with an anti-E subunit antibody. […] Arrows point to representative osteoclasts; The present inventors also tested the effects of enoxacin on osteoclasts that were already mature and loaded onto bone slices. In this experiment, mature osteoclasts on bone slices were treated with enoxacin or vehicle control for 3 days, then fixed and labeled with an anti-E subunit antibody. Control osteoclasts produced many ruffled membranes.

[4] abbreviates: 100 uM inhibitor compound, recombinant B subunit 1 μM, F-actin 2 μM, densitometry of SDS-PAGE gels.
[5] abbreviates: 100 uM inhibitor compound, recombinant B subunit 1 μM, F-actin 2 μM, densitometry of SDS-PAGE gels, read-out: % inhibition.

T1 sequence (P21281 whole entry): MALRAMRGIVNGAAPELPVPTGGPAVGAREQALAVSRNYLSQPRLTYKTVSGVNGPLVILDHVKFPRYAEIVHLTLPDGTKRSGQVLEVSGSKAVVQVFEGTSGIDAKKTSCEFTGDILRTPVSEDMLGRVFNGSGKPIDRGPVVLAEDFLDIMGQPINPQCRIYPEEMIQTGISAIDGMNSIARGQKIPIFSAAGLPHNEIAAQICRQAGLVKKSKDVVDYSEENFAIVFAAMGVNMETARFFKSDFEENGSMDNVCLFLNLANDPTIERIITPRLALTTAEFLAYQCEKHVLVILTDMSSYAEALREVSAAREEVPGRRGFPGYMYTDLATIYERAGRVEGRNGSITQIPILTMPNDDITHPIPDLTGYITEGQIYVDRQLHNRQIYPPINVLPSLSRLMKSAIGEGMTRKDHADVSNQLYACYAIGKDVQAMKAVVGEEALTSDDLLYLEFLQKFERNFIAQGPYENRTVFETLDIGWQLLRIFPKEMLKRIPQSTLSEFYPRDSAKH

The term % inhibition denotes the drop in the measured response relative to a control, in per cent. Take “2,4-diamino-5-(4-((2-aminoethyl)amino)-3-(hydroxy(oxido)amino)phenyl)-6-ethylpyrimidine [Binhib 33]”: the “% inhibition” value in test [1] (setting [4]) worked out at 1%.
In the case of “2-((4-methyl-1-piperazinyl)methyl)-15-indeno[1,2,3-de]quinazolin-1-ol [Binhib 15]”, the “% inhibition” value in test [1] (setting [4]) came to 0%.
As for `Clc1cc(Cl)c(C[N+]23CN4CN(CN(C4)C2)C3)cc1Cl.[Cl-]` [Binhib 1, {3,5,7-Triaza-1-azoniatricyclo[3.3.1.13,7]decane}{1-[(2,}4,5-trichlorophenyl)methyl]-, chloride], in test [1] (setting [4]), the “% inhibition” value is given as 5%.
As usually defined, the inhibition is the change of the read-out against control, counted positive when it falls. As to `O=C(C[N+]12CN3CN(CN(C3)C1)C2)c1ccc(Cl)cc1.[I-]` [Binhib 2, 3,5,7-triaza-1-azoniatricyclo[3.3.1.13,7]decane, 1-[2-(4-chlorophenyl)-2-oxoethyl]-iodide], in test [1], the “B subunit actin interactions in vitro” value was “inhibits”. Besides, the inhibition at 100 µM in test [1] (setting [5]) was 65%. Moreover, the osteoclast formation result in test [2] is reported as “without affecting”. Moreover, the ruffled membrane formation result in test [3] is “blocks”.
As to `CN1N(C)C12CCC1(C)C(CCC3C1CCC1(C)C3CCC1(C)O)C2` (stereo not shown) [Binhib 3, 1′,2′,10,13,17-pentamethylhexadecahydrospiro[cyclopenta[a]phenanthrene-3,3′-diaziridin]-17-ol], the inhibition at 100 µM in test [1] was 7%.
Take `CCOC(=O)C(Cc1c[nH]c2ccccc12)NCCN` (stereo not shown) [Binhib 5, ethyl 2-((2-aminoethyl)amino)-3-(1H-indol-3-yl)propanoate]: the inhibition at 100 µM in test [1] (setting [5]) is 0%.
As to `Brc1ccc(C[N+]23CN4CN(CN(C4)C2)C3)cc1.[Br-]` [Binhib 9, 3-(5,7-Triaza-1-azoniatricyclo[3.3.1.13,7]decane) (1-[(4-bromophenyl)methyl])bromide], the “% inhibition” value in test [1] (setting [4]) is 21%.
On to `ON=C(C[N+]12CN3CN(CN(C3)C1)C2)c1ccc(I)cc1` [Binhib 10, 1-(4-iodophenyl)-2-(15,3,5,7-tetraazatricyclo[3.3.1.1˜3,7˜]dec-1-yl)ethanone oxime], for which the “% inhibition” value in test [1] (setting [4]) came out at 3%.
As to `COc1cccc(CN2CCN(N)CC2)c1` [Binhib 17, 4-(3-methoxybenzyl)-1-piperazinamine], the inhibition at 100 µM in test [1] (setting [5]) was found to be 0%.
With `BrC=C(Br)C[N+]12CN3CN(CN(C3)C1)C2` [Binhib 18, 1-(2,3-dibromo-2-propenyl)-15,3,5,7-tetraazatricyclo[3.3.1.1˜3,7˜]decane], the “% inhibition” value in test [1] (setting [4]) amounted to 2%.
Turning to `CC(C)Cc1ccc(C[N+]23CN4CN(CN(C4)C2)C3)cc1` [Binhib 20, 1-(4-isobutylbenzyl)-15,3,5,7-tetraazatricyclo[3.3.1.1˜3,7˜]decane], the “% inhibition” value in test [1] (setting [4]) stood at 5%.
For the molecule `O=C(C[N+]12CN3CN(CN(C3)C1)C2)c1ccc(Br)cc1` [Binhib 24, 1-(4-bromophenyl)-2-(15,3,5,7-tetraazatricyclo[3.3.1.1˜3,7˜]dec-1-yl)ethanone], the “% inhibition” value in test [1] (setting [4]) is 13%.
Regarding `C=C1C23C(CCCC2NC)CCC2(C)C4C(C(C)=O)C(O)CC4(C)CCC123` (stereo not shown) [Binhib 26, 1-(2-hydroxy-3a,12a-dimethyl-7-(methylamino)-6-methylenehexadecahydro-cyclopenta[a]cyclopropa[e]phenanthren-1-yl)ethanone], in test [1] (setting [5]), the inhibition at 100 µM stood at 0%.
Regarding `Cc1nc2ccccc2cc1C[N+]12CN3CN(CN(C3)C1)C2` [Binhib 30, 1-((2-methyl-3-quinolinyl)methyl)-15,3,5,7-tetraazatricyclo[3.3.1.1˜3,7˜]decane], the “% inhibition” value in test [1] (setting [4]) is 4%.
For `Cn1c(=O)c2nc(SSc3nc4c(=O)n(C)c(=O)n(C)c4[nH]3)[nH]c2n(C)c1=O` [Binhib 31, 8,8′-disulfanediylbis(1,3-dimethyl-1H-purine-2,6(3H,9H)-dione)], the inhibition at 100 µM in test [1] (setting [5]) turned out to be 2%.
Consider `COC(=O)C1CC23CCCN4CCC5(c6cccc(OC)c6N(C=O)C15CC2)C43` (stereo not shown) [Binhib 35, methyl 1-formyl-17-methoxyaspidofractinine-3-carboxylate], for which, in test [1] (setting [4]), the “% inhibition” value was found to be 4%.
In the case of `O=C(C[N+]12CN3CN(CN(C3)C1)C2)c1ccc2ccccc2c1` [Binhib 36, 1-(2-naphthyl)-2-(15,3,5,7-tetraazatricyclo[3.3.1.1˜3,7˜]dec-1-yl)ethanone], in test [1] (setting [4]), the “% inhibition” value is 0%.
Regarding `S=C(S)NCCN1CCNCC1` [Binhib 38, 2-(1-piperazinyl)ethylcarbamodithioic acid], in test [1] (setting [5]), the inhibition at 100 µM came to 3%.
Take `COc1ccc(C(=O)C[N+]23CN4CN(CN(C4)C2)C3)cc1` [Binhib 41, 1-(4-methoxyphenyl)-2-(15,3,5,7-tetraazatricyclo[3.3.1.1˜3,7˜]dec-1-yl)ethanone]: in test [1] (setting [4]), the “% inhibition” value turned out to be 4%.
